Tests used:
[1] = biological target: Mitogen-activated protein kinase kinase kinase 11 (Homo sapiens) (UniProt Q16584)
[2] = biological target: Cyclin-dependent kinase 16 (Homo sapiens) (UniProt Q00536)
[3] = biological target: Serine/threonine-protein kinase Nek4 (Homo sapiens) (UniProt P51957)
[4] = biological target: T1, 5-hydroxytryptamine receptor 1A (Homo sapiens) (UniProt P08908); details: Compound concentration 10.0 uM
T1 sequence (whole entry): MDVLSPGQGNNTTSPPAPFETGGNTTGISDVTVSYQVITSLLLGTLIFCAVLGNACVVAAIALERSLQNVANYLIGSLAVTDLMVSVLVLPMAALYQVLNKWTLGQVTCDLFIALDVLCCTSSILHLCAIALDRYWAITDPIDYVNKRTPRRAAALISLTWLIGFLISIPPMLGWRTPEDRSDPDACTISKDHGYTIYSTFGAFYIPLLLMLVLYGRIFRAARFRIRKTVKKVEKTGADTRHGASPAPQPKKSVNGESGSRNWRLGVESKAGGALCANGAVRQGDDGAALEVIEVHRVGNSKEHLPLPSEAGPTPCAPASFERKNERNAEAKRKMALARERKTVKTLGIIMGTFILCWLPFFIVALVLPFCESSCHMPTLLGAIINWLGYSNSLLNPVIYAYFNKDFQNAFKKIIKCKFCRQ

[5] = test system: Tyrosine-protein kinase ABL1 (Homo sapiens), P00519 [F317I]
[6] = biological target: T2, Mitogen-activated protein kinase 12 (Homo sapiens) (UniProt P53778)
T2 sequence (whole entry): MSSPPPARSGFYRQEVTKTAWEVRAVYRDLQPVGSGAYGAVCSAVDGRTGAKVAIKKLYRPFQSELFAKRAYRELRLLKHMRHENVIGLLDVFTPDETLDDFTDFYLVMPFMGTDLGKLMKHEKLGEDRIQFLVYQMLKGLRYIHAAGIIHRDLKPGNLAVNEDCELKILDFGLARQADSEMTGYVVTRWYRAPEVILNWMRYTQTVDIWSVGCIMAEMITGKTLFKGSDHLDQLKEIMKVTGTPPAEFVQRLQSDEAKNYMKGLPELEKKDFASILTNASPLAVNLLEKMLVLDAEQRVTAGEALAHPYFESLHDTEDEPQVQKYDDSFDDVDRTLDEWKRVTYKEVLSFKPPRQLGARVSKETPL

[7] = biological target: Mitogen-activated protein kinase kinase kinase 20 (Homo sapiens) (UniProt Q9NYL2)
[8] = biological target: Mitogen-activated protein kinase 1 (Homo sapiens) (UniProt P28482)
[9] = biological target: Cyclin-dependent kinase 4 (Homo sapiens) (UniProt P11802)
Cyclin-dependent kinase 4 (Homo sapiens), sequence (P11802 whole entry): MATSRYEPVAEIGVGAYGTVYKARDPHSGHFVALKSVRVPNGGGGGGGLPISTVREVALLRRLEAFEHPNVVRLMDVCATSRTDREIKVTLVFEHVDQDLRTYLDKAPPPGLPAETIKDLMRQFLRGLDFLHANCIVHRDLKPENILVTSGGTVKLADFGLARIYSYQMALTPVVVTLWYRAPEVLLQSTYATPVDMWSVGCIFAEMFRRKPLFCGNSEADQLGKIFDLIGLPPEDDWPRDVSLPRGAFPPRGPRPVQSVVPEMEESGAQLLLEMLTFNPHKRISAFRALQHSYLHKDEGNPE

[10] = test system: Epidermal growth factor receptor (Homo sapiens), P00533 [G719S]
[11] = biological target: Serine/threonine-protein kinase Nek7 (Homo sapiens) (UniProt Q8TDX7)
Serine/threonine-protein kinase Nek7 (Homo sapiens), sequence (Q8TDX7 whole entry, looked up): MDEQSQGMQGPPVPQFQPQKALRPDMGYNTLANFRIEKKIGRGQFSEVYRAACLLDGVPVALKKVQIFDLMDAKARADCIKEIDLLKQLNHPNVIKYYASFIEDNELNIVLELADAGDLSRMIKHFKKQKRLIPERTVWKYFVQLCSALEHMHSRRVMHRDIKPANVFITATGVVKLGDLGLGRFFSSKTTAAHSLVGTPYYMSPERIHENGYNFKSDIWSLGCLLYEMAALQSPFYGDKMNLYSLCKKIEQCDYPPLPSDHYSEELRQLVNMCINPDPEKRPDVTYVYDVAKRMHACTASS

[12] = biological target: Mitogen-activated protein kinase kinase kinase 14 (Homo sapiens) (UniProt Q99558)
Mitogen-activated protein kinase kinase kinase 14 (Homo sapiens), sequence (Q99558 whole entry, looked up): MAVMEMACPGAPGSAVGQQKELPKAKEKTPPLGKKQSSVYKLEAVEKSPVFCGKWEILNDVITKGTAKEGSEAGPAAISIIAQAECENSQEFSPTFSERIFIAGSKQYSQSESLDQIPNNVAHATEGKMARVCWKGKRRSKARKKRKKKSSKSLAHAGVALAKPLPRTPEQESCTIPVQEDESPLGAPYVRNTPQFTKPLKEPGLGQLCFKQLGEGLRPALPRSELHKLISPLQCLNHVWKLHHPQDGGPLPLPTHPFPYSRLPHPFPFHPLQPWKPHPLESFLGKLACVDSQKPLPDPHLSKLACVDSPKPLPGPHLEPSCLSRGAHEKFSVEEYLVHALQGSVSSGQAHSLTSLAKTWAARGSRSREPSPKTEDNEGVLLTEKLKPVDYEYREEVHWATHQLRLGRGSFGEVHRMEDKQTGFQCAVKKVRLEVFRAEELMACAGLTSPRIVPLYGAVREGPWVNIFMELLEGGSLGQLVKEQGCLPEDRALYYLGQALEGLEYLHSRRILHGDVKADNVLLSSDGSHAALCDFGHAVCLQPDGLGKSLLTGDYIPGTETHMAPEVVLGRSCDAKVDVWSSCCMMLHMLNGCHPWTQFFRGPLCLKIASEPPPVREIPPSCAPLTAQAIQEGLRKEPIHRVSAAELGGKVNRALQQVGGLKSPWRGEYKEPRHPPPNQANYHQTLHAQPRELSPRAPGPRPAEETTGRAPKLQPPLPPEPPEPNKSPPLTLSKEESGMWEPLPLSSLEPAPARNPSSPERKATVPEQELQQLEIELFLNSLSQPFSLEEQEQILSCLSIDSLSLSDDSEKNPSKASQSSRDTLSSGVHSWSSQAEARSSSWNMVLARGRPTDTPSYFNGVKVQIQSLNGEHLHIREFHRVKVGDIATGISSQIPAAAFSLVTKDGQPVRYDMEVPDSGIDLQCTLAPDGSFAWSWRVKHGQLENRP

[13] = biological target: T3, Tyrosine-protein kinase TXK (Homo sapiens) (UniProt P42681)
T3 sequence (whole entry): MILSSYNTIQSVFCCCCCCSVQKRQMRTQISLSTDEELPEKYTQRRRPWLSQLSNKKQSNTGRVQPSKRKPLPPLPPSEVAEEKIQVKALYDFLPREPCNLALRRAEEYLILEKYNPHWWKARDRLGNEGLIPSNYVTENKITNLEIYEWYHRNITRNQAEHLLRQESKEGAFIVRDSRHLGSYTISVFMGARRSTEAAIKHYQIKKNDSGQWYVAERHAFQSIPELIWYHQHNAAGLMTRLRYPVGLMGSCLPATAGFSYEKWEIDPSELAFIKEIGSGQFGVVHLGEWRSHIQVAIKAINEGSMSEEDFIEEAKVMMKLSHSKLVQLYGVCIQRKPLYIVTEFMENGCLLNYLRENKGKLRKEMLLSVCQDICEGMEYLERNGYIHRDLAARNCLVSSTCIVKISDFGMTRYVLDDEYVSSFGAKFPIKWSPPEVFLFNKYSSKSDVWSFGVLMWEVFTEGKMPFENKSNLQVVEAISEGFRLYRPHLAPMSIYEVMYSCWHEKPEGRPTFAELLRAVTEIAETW

[14] = biological target: 5-hydroxytryptamine receptor 2A (Homo sapiens) (UniProt P28223); details: Compound concentration 10.0 uM
5-hydroxytryptamine receptor 2A (Homo sapiens), sequence (P28223 whole entry): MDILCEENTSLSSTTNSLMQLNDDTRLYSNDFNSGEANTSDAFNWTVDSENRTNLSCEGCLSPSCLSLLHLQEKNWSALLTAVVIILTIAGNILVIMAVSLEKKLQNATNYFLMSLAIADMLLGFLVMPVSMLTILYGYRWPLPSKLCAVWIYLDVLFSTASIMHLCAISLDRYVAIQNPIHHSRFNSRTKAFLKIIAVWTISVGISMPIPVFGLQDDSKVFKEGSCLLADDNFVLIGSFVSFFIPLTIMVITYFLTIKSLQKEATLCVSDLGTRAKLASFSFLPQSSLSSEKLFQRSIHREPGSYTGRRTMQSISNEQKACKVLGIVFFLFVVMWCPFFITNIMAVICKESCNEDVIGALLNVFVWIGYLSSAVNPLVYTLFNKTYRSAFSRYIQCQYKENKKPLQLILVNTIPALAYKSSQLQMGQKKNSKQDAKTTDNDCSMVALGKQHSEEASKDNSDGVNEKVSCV

[15] = biological target: Ephrin type-A receptor 5 (Homo sapiens) (UniProt P54756)
Ephrin type-A receptor 5 (Homo sapiens), sequence (P54756 whole entry): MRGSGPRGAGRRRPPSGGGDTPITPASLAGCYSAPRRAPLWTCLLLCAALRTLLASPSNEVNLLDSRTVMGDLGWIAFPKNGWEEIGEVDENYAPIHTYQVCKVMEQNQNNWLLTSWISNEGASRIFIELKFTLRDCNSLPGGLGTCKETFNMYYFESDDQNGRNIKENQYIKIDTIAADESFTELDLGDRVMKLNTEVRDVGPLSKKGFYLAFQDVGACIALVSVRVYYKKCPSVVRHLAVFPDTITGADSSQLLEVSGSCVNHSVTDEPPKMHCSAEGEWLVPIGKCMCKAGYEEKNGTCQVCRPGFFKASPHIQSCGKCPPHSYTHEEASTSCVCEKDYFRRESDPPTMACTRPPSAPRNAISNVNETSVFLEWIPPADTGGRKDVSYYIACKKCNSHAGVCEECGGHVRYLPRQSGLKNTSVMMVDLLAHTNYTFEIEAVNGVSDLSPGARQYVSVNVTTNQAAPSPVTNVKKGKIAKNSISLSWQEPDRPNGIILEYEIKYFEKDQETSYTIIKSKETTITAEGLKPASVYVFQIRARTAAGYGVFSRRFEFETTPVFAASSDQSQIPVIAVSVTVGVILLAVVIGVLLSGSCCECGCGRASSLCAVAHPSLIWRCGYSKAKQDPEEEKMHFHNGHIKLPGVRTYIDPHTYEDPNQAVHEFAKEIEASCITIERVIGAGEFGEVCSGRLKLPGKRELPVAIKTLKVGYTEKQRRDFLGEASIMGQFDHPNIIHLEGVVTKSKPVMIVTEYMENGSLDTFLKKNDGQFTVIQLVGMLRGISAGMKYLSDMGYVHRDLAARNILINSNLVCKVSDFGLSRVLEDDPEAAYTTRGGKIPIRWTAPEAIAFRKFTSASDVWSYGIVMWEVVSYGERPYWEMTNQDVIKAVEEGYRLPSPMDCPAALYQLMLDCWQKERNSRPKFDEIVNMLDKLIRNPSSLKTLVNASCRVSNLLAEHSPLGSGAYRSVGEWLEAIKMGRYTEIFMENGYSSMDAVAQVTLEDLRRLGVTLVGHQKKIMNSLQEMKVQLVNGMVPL

[16] = biological target: Serine/threonine-protein kinase MAK (Homo sapiens) (UniProt P20794)
Serine/threonine-protein kinase MAK (Homo sapiens), sequence (P20794 whole entry): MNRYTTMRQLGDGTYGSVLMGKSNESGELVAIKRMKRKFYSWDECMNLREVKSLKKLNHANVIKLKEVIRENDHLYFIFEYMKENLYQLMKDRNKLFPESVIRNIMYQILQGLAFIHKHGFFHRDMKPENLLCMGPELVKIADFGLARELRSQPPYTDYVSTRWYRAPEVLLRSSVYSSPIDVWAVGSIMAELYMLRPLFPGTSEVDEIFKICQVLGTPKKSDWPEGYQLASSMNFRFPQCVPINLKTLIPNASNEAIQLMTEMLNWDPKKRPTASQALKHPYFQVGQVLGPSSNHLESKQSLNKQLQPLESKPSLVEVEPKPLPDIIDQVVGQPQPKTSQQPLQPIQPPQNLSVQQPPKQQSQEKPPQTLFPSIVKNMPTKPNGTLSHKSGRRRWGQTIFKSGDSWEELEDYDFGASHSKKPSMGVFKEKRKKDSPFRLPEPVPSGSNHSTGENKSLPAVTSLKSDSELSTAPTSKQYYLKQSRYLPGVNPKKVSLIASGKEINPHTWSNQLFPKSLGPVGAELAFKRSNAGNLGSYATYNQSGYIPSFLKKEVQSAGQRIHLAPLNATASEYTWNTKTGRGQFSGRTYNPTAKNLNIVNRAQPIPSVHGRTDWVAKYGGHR

[17] = biological target: Calcium/calmodulin-dependent protein kinase type IV (Homo sapiens) (UniProt Q16566)
[18] = biological target: Receptor-interacting serine/threonine-protein kinase 2 (Homo sapiens) (UniProt O43353)
[19] = test system: Proto-oncogene tyrosine-protein kinase receptor Ret (Homo sapiens), P07949 [V804M]
[20] = biological target: Casein kinase I isoform gamma-3 (Homo sapiens) (UniProt Q9Y6M4)
[21] = biological target: Misshapen-like kinase 1 (Homo sapiens) (UniProt Q8N4C8)
[22] = Compound concentration 1000.0 nM
[23] = Compound concentration 100.0 nM

Cyclin-dependent kinase 16 (Homo sapiens), sequence (Q00536 whole entry): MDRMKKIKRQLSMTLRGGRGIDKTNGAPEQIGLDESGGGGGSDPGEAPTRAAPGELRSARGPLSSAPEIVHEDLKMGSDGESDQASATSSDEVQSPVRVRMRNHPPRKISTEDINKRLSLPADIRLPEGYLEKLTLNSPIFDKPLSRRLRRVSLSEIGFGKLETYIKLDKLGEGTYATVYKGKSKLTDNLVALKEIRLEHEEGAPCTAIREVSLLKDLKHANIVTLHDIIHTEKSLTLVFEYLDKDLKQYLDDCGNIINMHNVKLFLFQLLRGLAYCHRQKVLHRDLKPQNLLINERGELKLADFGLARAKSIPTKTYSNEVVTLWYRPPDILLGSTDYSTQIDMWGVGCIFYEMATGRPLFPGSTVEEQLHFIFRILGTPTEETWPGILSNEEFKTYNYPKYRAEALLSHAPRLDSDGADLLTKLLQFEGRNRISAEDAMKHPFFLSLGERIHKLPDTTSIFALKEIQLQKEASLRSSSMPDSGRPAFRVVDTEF
Mitogen-activated protein kinase kinase kinase 11 (Homo sapiens), sequence (Q16584 whole entry, looked up): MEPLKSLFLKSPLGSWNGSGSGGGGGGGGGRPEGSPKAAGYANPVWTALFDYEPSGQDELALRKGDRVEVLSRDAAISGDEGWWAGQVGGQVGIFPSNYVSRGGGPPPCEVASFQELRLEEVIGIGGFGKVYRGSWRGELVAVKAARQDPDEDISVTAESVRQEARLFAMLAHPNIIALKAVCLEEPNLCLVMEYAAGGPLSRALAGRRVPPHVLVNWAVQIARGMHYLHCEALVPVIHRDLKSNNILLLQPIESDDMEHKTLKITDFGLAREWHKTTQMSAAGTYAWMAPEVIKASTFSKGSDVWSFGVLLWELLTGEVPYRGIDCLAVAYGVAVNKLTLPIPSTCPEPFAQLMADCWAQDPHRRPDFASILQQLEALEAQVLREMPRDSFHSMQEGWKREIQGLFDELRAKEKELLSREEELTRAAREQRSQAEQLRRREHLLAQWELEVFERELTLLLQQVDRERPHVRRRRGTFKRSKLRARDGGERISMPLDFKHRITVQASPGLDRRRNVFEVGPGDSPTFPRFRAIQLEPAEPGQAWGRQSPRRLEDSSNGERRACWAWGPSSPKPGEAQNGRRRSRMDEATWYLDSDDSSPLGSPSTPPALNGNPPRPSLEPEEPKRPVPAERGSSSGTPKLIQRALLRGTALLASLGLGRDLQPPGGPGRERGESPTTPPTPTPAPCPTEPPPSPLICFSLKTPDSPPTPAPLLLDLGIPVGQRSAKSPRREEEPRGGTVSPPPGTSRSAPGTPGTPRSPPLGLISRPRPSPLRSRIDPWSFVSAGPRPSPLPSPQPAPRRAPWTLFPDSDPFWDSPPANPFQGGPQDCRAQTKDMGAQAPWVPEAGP

C[C@@H]1CN(c2cc(-c3nn(C)c4ccc(OC5(C)CC5)cc34)ncn2)C[C@H](C)O1 [MLi-2-NC]
inactive: residual activity [1, 22] 100% | residual activity [2, 22] 87% | residual activity [3, 22] 60% | inhibition [4] 18.1% | residual activity [5, 22] 75% | residual activity [6, 22] 100% | residual activity [7, 22] 100% | residual activity [8, 22] 100% | residual activity [9, 22] 91% | residual activity [10, 22] 72% | residual activity [11, 22] 79% | residual activity [12, 22] 100% | residual activity [13, 22] 100% | inhibition [14] 3.31% | residual activity [15, 22] 100% | residual activity [16, 22] 100% | residual activity [17, 22] 67% | residual activity [18, 22] 100% | residual activity [19, 22] 100% | residual activity [20, 22] 100% | residual activity [21, 22] 66%

C[C@@H]1CN(c2cc(-c3n[nH]c4ccc(OC5(C)CC5)cc34)ncn2)C[C@H](C)O1 [MLi-2]
inactive: residual activity [1, 23] 100% | residual activity [2, 23] 85% | residual activity [3, 23] 84% | inhibition [4] 4.44% | residual activity [5, 23] 80% | residual activity [6, 23] 96% | residual activity [7, 23] 92% | residual activity [8, 23] 98% | residual activity [9, 23] 71% | residual activity [10, 23] 59% | residual activity [11, 23] 100% | residual activity [12, 23] 64% | residual activity [13, 23] 80% | inhibition [14] 2.75% | residual activity [15, 23] 95% | residual activity [16, 23] 95% | residual activity [17, 23] 78% | residual activity [18, 23] 100% | residual activity [19, 23] 97% | residual activity [20, 23] 95% | residual activity [21, 23] 84%

From ChEMBL document CHEMBL4507291 (2021)
